Laboratory results published in patent publication US5332726A, “Antithrombotic peptides and pseudopeptides” (Rhone-Poulenc Rorer Pharmaceuticals Inc., priority 1992, dated 1994).
Where two headings read alike, the source gives them in different places. Non-standard residues stand in square brackets, D forms with d. Residues, ends and D or L forms follow the SMILES beside them. Aun = NCCCCCCCCCCC(=O)O; Aoc = NCCCCCCCC(=O)O; Ahx = NCCCCCC(=O)O; NEtG = CCNCC(=O)O; Sar = CNCC(=O)O

Legend:
[1] = biological target: thrombin-stimulated platelets (Homo sapiens, UniProt P05106+P08514); test: Fibrinogen-Binding Assay (125I-fibrinogen binding to platelets)
Chain of thrombin-stimulated platelets (P08514 32-1039): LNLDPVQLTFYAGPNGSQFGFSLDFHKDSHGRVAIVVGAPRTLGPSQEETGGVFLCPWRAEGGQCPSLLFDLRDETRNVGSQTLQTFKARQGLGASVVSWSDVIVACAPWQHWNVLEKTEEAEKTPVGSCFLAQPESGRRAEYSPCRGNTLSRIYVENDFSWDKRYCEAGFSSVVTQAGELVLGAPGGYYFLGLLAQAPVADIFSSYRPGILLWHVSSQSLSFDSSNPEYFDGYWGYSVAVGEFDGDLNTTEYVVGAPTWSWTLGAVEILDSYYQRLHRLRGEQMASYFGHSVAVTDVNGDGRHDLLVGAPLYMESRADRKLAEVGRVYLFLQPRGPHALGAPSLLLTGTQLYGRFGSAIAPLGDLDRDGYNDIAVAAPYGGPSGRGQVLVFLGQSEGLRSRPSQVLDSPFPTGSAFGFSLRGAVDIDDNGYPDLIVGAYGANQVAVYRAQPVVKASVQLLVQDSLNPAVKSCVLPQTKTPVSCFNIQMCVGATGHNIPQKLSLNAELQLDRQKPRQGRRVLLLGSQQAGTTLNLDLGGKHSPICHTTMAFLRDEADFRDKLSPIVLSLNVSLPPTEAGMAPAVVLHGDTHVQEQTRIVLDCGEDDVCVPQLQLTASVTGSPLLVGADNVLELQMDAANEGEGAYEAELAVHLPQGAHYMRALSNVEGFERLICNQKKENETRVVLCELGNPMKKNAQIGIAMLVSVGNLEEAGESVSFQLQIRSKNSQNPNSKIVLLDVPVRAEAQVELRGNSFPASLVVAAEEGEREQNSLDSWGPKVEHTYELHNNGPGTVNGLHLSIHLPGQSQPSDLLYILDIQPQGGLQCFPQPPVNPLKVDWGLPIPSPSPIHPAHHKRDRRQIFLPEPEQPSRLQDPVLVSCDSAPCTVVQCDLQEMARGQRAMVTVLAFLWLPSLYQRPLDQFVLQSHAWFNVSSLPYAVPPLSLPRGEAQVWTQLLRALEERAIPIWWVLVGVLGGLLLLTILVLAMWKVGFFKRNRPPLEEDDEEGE
Chain of thrombin-stimulated platelets (P05106 27-788): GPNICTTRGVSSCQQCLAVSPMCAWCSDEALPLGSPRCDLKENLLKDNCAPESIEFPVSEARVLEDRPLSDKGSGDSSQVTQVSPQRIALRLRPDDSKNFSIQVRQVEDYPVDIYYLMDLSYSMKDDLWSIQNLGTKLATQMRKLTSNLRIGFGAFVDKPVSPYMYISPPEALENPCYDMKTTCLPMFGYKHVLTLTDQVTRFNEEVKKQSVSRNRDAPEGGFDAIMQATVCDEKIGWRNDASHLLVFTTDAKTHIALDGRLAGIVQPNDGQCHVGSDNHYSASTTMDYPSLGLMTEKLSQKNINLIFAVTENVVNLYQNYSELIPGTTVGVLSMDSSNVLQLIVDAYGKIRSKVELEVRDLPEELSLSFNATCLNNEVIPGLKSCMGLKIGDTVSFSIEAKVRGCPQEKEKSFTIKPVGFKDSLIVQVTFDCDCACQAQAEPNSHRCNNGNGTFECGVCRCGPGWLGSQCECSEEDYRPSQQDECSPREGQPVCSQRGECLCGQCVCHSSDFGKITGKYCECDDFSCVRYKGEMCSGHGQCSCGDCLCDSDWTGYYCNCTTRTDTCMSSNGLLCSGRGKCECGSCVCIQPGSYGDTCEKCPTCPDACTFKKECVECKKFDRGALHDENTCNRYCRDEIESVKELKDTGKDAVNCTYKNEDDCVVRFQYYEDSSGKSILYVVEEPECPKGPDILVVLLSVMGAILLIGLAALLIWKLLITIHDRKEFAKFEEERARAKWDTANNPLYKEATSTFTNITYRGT

[2] = biological target: fixed activated platelets (Homo sapiens, UniProt P05106+P08514); test: Platelet Aggregation Assay (fibrinogen-mediated aggregation of fixed-activated platelets); assay type: cell-based
Chain of fixed activated platelets (P08514 32-1039): as the sequence (P08514 32-1039) above
Chain of fixed activated platelets (P05106 27-788): as the sequence (P05106 27-788) above
Method in brief: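 Activated platelets fixed with 0.50% paraformaldehyde for 30 min at room temperature. They were then pre-incubated 1 min with test compound before aggregation was triggered by human fibrinogen at 250 μg/ml final. Aggregation recorded on an aggregometer.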

[3] = fixed activated platelets, human fibrinogen 250 μg/ml; read-out: Inhibition of Fibrinogen Mediated Platelet Aggregation IC50
[4] = read-out: Inhibition of Fibrinogen Mediated Platelet Aggregation % inhibition at 100 μM
[5] = 125I-fibrinogen 0.176 μmol/liter, thrombin-stimulated platelets; read-out: Inhibition of 125I-Fibrinogen Binding to Platelets IC50
[6] = read-out: Inhibition of Fibrinogen Mediated Platelet Aggregation % inhibition at 25 μM

Row | Structure (SMILES) | inhibition at 50 µg/mL ([1]; read-out: Inhibition of 125I-Fibrinogen Binding to Platelets: Inhibited <50% at 50 μg/ml) | IC50 [2, 3] | inhibition at 100 µM [2, 4] | IC50 [1, 5] | inhibition at 25 µM [2, 6] | IC50 ([1]; read-out: Inhibition of 125I-Fibrinogen Binding to Platelets IC50; 125I-fibrinogen 0.176 μmol/liter, thrombin-stimulated platelets) | IC50 ([2]; read-out: Inhibition of Fibrinogen Mediated Platelet Aggregation IC50; fixed activated platelets, human fibrinogen 250 μg/ml)
1 | CC(C)[C@H](NC(=O)[C@H](C)NC(=O)CNC(=O)[C@@H](N)CCCNC(=N)N)C(=O)O [L-arginylglycyl-L-alanyl-L-valine] (H-RGAV-OH) | < 50% | > 100000 nM | 17.5% |  |  |  | 
2 | CC(C)[C@H](NC(=O)[C@H](CC(=O)O)NC(=O)CNC(=O)[C@@H](N)CCCCN)C(=O)O [L-Lysylglycyl-L-aspartyl-L-valine] (H-KGDV-OH) |  | > 25000 nM |  | 60000 nM | 8% |  | 
3 | CC[C@H](C)[C@H](NC(=O)CNC(=O)[C@H](CC(=O)O)NC(=O)CCCCCCCCNC(=N)N)C(=O)O [9-Guanidinononanoyl-L-aspartyl-glycyl-L-isoleucine] |  | 25000 nM |  | 40000 nM | 54% |  | 
4 | CC(C)[C@H](NC(=O)[C@H](CC(=O)O)NC(=O)CCCCCCCCCCN)C(=O)O [11-Aminoundecanoyl-L-aspartyl-L-valine] (H-[Aun]-Asp-Val-OH) |  | 1700 nM |  | 580 nM | 0.98% |  | 
5 | N=C(N)NCCCCCCCCC(=O)N[C@@H](CC(=O)O)C(=O)NCC(=O)N[C@@H](CCCNC(=N)N)C(=O)O [9-Guanidinononanoyl-L-aspartyl-glycyl-L-arginine] |  | 2200 nM |  | 7000 nM | 85% |  | 
6 | CC(C)[C@H](NC(=O)[C@H](CC(=O)O)NC(=O)CN(C)C(=O)CCCCCNC(=N)N)C(=O)O [6-Guanidinohexanoyl-L-sarcosyl-L-aspartyl-L-valine] |  | 630 nM |  | 320 nM | 97% |  | 
7 | CC(C)[C@H](NC(=O)[C@H](CC(=O)O)NC(=O)CCCCCCCCCCNC(=N)N)C(=O)O [11-guanidinoundecanoyl-L-aspartyl-L-valine] |  |  |  | 17000 nM | 36% |  | 
8 | CC[C@H](C)[C@H](NC(=O)CCNC(=O)[C@H](CC(=O)O)NC(=O)CCCCCCCCNC(=N)N)C(=O)O [9-Guanidinononanoyl-L-aspartyl-β-alanyl-L-isoleucine] |  | 999000 nM |  | 54000 nM | 9% |  | 
9 | CCN(CC(=O)N[C@@H](CC(=O)O)C(=O)N[C@@H](CCCNC(=N)N)C(=O)O)C(=O)CCCCCNC(=N)N [6-Guanidinohexanoyl-N-ethylglycyl-L-aspartyl-L-arginine] |  | 1400 nM |  | 240 nM | 97% |  | 
10 | CC(C)[C@H](NC(=O)[C@H](CC(=O)O)NC(=O)CN(C)C(=O)CCCCCCCN)C(=O)O [8-Aminooctanoyl-sarcosyl-L-aspartyl-L-valine] (H-[Aoc][Sar]DV-OH) |  | 2600 nM |  | 230 nM | 96% |  | 
11 | CCC(CC)(NC(=O)[C@H](CC(=O)O)NC(=O)CCCCCCCCNC(=N)N)C(=O)N[C@@H](CCCNC(=N)N)C(=O)O [9-Guanidinononanoyl-L-aspartyl-α,α-diethyl-glycyl-L-arginine] |  | > 25000 nM |  | 40000 nM | 20% |  | 
12 | N=C(N)NCCCCCCCC(=O)N[C@@H](CC(=O)O)C(=O)N[C@@H](CCCNC(=N)N)C(=O)O [8-Guanidinooctanoyl-L-aspartyl-arginine] |  | 2200 nM |  | 330 nM | 94% |  | 
13 | CC[C@H](C)[C@H](NC(=O)[C@H](CC(=O)O)NC(=O)CN(CC)C(=O)CCCCCNC(=N)N)C(=O)O [6-Guanidinohexanoyl-N-ethylglycyl-L-aspartyl-L-isoleucine] |  | 560 nM |  | 50 nM | 96% |  | 
14 | CN(CC(=O)N[C@@H](CC(=O)O)C(=O)N[C@@H](CCCCN)C(=O)O)C(=O)CCCCCNC(=N)N [6-Guanidinohexanoyl-sarcosyl-L-aspartyl-L-lysine] |  | 4100 nM |  | 340 nM | 86% |  | 
15 | CC(C)[C@H](NC(=O)[C@H](CC(=O)O)NC(=O)CNC(=O)CCCCNC(=N)N)C(=O)O [N-(5-guanidinopentanoyl)glycyl-L-aspartyl-L-valine] |  | 2300 nM | 92% | 700 nM |  |  | 
16 | CC(C)[C@H](NC(=O)[C@H](CC(=O)O)NC(=O)CN(C)C(=O)CCCCCn1ccnc1-c1ccccc1)C(=O)O [6-(2-Phenylimidazol-1-yl)hexanoyl-sarcosyl-L-aspartyl-L-valine] |  | 5600 nM |  | 380 nM | 84% |  | 
17 | N=C(N)NCCCCCCCCC(=O)N[C@@H](CC(=O)O)C(=O)NC(Cc1ccccc1)(Cc1ccccc1)C(=O)O [9-Guanidinononanoyl-L-aspartyl-α-benzylphenylalanine] |  | > 25000 nM |  | > 200000 nM | 10% |  | 
18 | CC[C@H](C)[C@H](NC(=O)[C@H](CC(=O)O)NC(=O)CCCCCCCCNC(=N)N)C(=O)O [9-Guanidinononanoyl-L-aspartyl-L-isoleucine] |  | 4200 nM |  | 380 nM | 93% |  | 

Row | Structure (SMILES) | inhibition at 50 µg/mL ([1]; read-out: Inhibition of 125I-Fibrinogen Binding to Platelets: Inhibited <50% at 50 μg/ml) | IC50 [2, 3] | inhibition at 100 µM [2, 4] | IC50 [1, 5] | inhibition at 25 µM [2, 6] | IC50 ([1]; read-out: Inhibition of 125I-Fibrinogen Binding to Platelets IC50; 125I-fibrinogen 0.176 μmol/liter, thrombin-stimulated platelets) | IC50 ([2]; read-out: Inhibition of Fibrinogen Mediated Platelet Aggregation IC50; fixed activated platelets, human fibrinogen 250 μg/ml)
19 | N=C(N)NCCCCC(=O)NCC(=O)N[C@@H](CC(=O)O)C(=O)N1CCc2ccccc2C1 [2-[N-(5-guanidinopentanoyl)glycyl-L-aspartyl]-1,2,3,4-tetrahydroisoquinoline] |  | 20400 nM | 48% | 130000 nM |  |  | 
20 | N=C(N)NCCCCCCCCC(=O)N[C@@H](CC(=O)O)C(=O)N[C@@H](Cc1ccccc1)C(=O)N[C@@H](CCCNC(=N)N)C(=O)O [9-Guanidinononanoyl-L-aspartyl-L-phenylalanine-L-arginine] |  | 320 nM |  | 6000 nM | 98% |  | 
21 | CC[C@H](C)[C@H](NC(=O)[C@H](CC(=O)O)NC(=O)CCCCCCCCNC(=N)N)C(=O)N[C@@H](CCCNC(=N)N)C(=O)O [9-Guanidinononanoyl-L-aspartyl-isoleucyl-arginine] |  | 670 nM |  | 370 nM | 94% |  | 
22 | CC(C)[C@H](NC(=O)[C@H](CC(=O)O)NC(=O)CCCCCCn1ccnc1)C(=O)O [7-(Imidazol-1-yl)heptanoyl-L-aspartyl-L-valine] |  | > 25000 nM |  | 2000 nM | 35% |  | 
23 | CC(C)C[C@H](NC(=O)[C@H](CC(=O)O)NC(=O)CCCCCCCCNC(=N)N)C(=O)O [9-guanidinononanoyl-L-aspartyl-L-leucine] |  | 590 nM |  | 400 nM | 95% |  | 
24 | CC(C)[C@H](NC(=O)[C@H](CC(=O)O)NC(=O)Cn1nnnc1CCCCCNC(=N)N)C(=O)O [[5-(5'-Guanidinopentyl)Tetrazol-1-yl]-Acetyl-L-Aspartyl-L-Valine] |  |  |  |  | 40% | 2200 nM | > 25000 nM
25 | CC(C)[C@H](NC(=O)[C@H](CC(=O)O)NC(=O)/C=C/CCCCCCNC(=N)N)C(=O)O [9-Guanidinonon-2-(E)-enoyl-L-aspartyl-L-valine] |  |  |  | 430 nM | 24% |  | 
26 | CC(C)CN(CC(=O)N[C@@H](CC(=O)O)C(=O)N[C@H](C(=O)O)C(C)C)C(=O)CCCCCNC(=N)N [6-Guanidinohexanoyl-N-isobutylglycyl-L-aspartyl-L-valine] |  | 1500 nM |  | 100 nM | 86% |  | 
27 | CC(C)[C@H](NC(=O)[C@H](CC(=O)O)NC(=O)CN(C)C(=O)CCCNC(=N)N)C(=O)O [4-Guanidinobutanoyl-L-sarcosyl-L-aspartyl-L-valine] |  | 10800 nM |  | 3300 nM | 84% |  | 
28 | CC(C)[C@H](NC(=O)[C@H](CC(=O)O)NC(=O)CNC(=O)CCCCn1ccnc1)C(=O)O [5-(Imidazol-1-yl)-valeroylglycyl-L-aspartyl-L-valine] |  | 20200 nM |  | 1250 nM | 58% |  | 
29 | CN(CC(=O)N[C@@H](CC(=O)O)C(=O)N[C@@H](Cc1c[nH]c2ccccc12)C(=O)O)C(=O)CCCCCNC(=N)N [6-Guanidinohexanoyl-sarcosyl-L-aspartyl-L-tryptophan] |  | 6600 nM |  | 190 nM | 89% |  | 
30 | CC(C)[C@H](NC(=O)[C@H](CC(=O)O)NC(=O)CNC(=O)CCCCCNC(=N)N)C(=O)O [6-Guanidinohexanoyl-glycyl-L-aspartyl-L-valine] |  | 6500 nM |  | 1400 nM | 90% |  | 
31 | CCCC[C@H](NC(=O)[C@H](CC(=O)O)NC(=O)CCCCCCCCNC(=N)N)C(=O)N[C@@H](CCCNC(=N)N)C(=O)O [9-Guanidinononanoyl-L-aspartyl-L-norleucyl-L-arginine] |  | 300 nM |  | 210 nM | 95% |  | 
32 | CCN(CC(=O)N[C@@H](CC(=O)O)C(=O)N[C@@H](CC(C)C)C(=O)O)C(=O)CCCCNC(=N)N [5-guanidinopentanoyl-N-(ethyl)-glycyl-L-aspartyl-L-leucine] |  | 540 nM |  | 390 nM | 90% |  | 
33 | CCN(CC(=O)N[C@@H](CC(=O)O)C(=O)N[C@H](C(=O)O)C(C)C)C(=O)CCCCCN [6-Aminohexanoyl-N-ethylglycyl-L-aspartyl-L-valine] (H-[Ahx][NEtG]DV-OH) |  | 4100 nM |  | 4000 nM | 92% |  | 
34 | CN(CC(=O)N[C@@H](CC(=O)O)C(=O)N[C@@H](CCCNC(=N)N)C(=O)O)C(=O)CCCCCNC(=N)N [6-Guanidinohexanoyl-sarcosyl-L-aspartyl-L-arginine] |  | 2100 nM |  | 520 nM | 97% |  | 
35 | CCC(CCCCCCNC(=N)N)C(=O)NC(CC(=O)O)C(=O)N[C@H](C(=O)O)C(C)C (mixture of isomers) [8-Guanidino-2-(R,S)-ethyl-octanoyl-L-aspartyl-L-valine] |  |  |  | > 200000 nM | 30% |  | 
